Consider 32 compounds from paper PMC6792352, “Limited Chemical Structural Diversity Found to Modulate Thyroid Hormone Receptor in the Tox21 Chemical Library” (Environmental Health Perspectives, 2019).

In this series the test system is GH3-TRE-Luc cell line. The following applies: read-out: AC50 (uM) modified / 1000, viability, 1 nM T3 present, 24 h.

Where a name gives a salt, the structure may show the parent alone. Read-outs that look alike come from different tables or passages of the source. Bounds are passed on as bounds.

`CN(C)c1ccc(C(=C2C=CC(=[N+](C)C)C=C2)c2ccc(N(C)C)cc2)cc1` [Gentian Violet]: the CC50 (Tox21_110001=Tox21_111084) came out at 1.65 µM, the CC50 (Tox21_110001=Tox21_201762) was determined as 0.893 µM and the CC50 (Tox21_110001=Tox21_300571) stood at 0.536 µM. `CN(C)CCC=C1c2ccccc2CCc2ccccc21` [Amitriptyline hydrochloride]: the CC50 turned out to be 18.1 µM (Tox21_110001=Tox21_113122), 8.86 µM (Tox21_110001=Tox21_201278) and 13.7 µM (Tox21_110001=Tox21_303612).

On to `CCCSc1ccc2nc(NC(=O)OC)[nH]c2c1` [Albendazole], for which, where the note is “Tox21_110001=Tox21_110659”, the CC50 is 0.271 µM.

With `CCCCCCCCCCCCCC[P+](CCCCCC)(CCCCCC)CCCCCC` [Trihexyltetradecylphosphonium dicyanamide], for the setting “Tox21_110001=Tox21_202613”, the CC50 came to 2.76 µM. Turning to `Oc1cccc2cccnc12` [8-Hydroxyquinoline sulfate], the CC50 (Tox21_110001=Tox21_303537) was found to be 1.43 µM. Turning to `C#C[C@]1(O)CC[C@H]2[C@@H]3CCC4=CCCC[C@@H]4[C@H]3CC[C@@]21C` [Lynestrenol], the CC50 came out at 17.1 µM (Tox21_110001=Tox21_110319) and 46.9 µM (Tox21_110001=Tox21_301969).

As for `CCc1nc(N)nc(N)c1-c1ccc(Cl)cc1` [Pyrimethamine], the CC50 by setting is: (Tox21_110001=Tox21_201834) > 90 µM; (Tox21_110001=Tox21_300129) 42.7 µM. For the compound `CCCCCCCCCCCCn1cc[n+](C)c1` [1-Dodecyl-3-methylimidazolium tetrafluoroborate], for the setting “Tox21_110001=Tox21_202629”, the CC50 was 3.46 µM. Take `CN(Cc1cnc2nc(N)nc(N)c2n1)c1ccc(C(=O)N[C@@H](CCC(=O)O)C(=O)O)cc1` [Methotrexate]: the CC50 (Tox21_110001=Tox21_300269) came to 0.164 µM. For the compound `O=C(c1ccc(OCCN2CCCCC2)cc1)c1c(-c2ccc(O)cc2)sc2cc(O)ccc12` [Raloxifene hydrochloride], the CC50 was found to be 5.6 µM (Tox21_110001=Tox21_110255) and 2.98 µM (Tox21_110001=Tox21_302369). Take `CCCCCCCCCCCCn1cc[n+](C)c1` [1-Dodecyl-3-methylimidazolium hexafluorophosphate]: under “Tox21_110001=Tox21_200596”, the CC50 turned out to be 4.11 µM. As to `CN(Cc1ccc(C(C)(C)C)cc1)Cc1cccc2ccccc12` [Butenafine hydrochloride], where the note is “Tox21_110001=Tox21_112918”, the CC50 was 28.6 µM. For `CC/C(=C(\c1ccc(O)cc1)c1ccc(OCCN(C)C)cc1)c1ccccc1` [(Z)-4-Hydroxytamoxifen], for the setting “Tox21_110001=Tox21_200943”, the CC50 was determined as 5.77 µM.

In the case of `CCCCCCCCCC[N+](C)(C)CCCCCCCCCC` [Didecyldimethylammonium bromide], the CC50 (Tox21_110001=Tox21_112302) was found to be 6.15 µM. `CNCCC(Oc1ccc(C(F)(F)F)cc1)c1ccccc1` (centres unmarked) [Fluoxetine]: the CC50 (Tox21_110001=Tox21_110144) was determined as 8.3 µM. For `Nc1ncn([C@@H]2O[C@H](CO)[C@@H](O)[C@H]2O)c(=O)n1` [5-Azacytidine], the CC50 (Tox21_110001=Tox21_111032) was determined as 5.77 µM and the CC50 (Tox21_110001=Tox21_302985) came to 19.3 µM. On to `CCCCNC(=O)OCC#CI` [3-Iodo-2-propynyl-N-butylcarbamate], for which the CC50 runs as follows: (Tox21_110001=Tox21_201864) 15.9 µM; (Tox21_110001=Tox21_301117) 4.22 µM.

With `CCCCCCCC[n+]1ccn(C)c1` [1-Methyl-3-octylimidazolium tetrafluoroborate], where the note is “Tox21_110001=Tox21_200695”, the CC50 came to 44.3 µM. Consider `CCCCCCCCCCCCCCCCn1cc[n+](C)c1` [1-Hexadecyl-3-methylimidazolium chloride], for which the CC50 (Tox21_110001=Tox21_200600) is 21.4 µM.

`Cc1c(O)cccc1C(=O)N[C@@H](CSc1ccccc1)[C@H](O)CN1C[C@H]2CCCC[C@H]2C[C@H]1C(=O)NC(C)(C)C` [Nelfinavir mesylate]: the CC50 was determined as 3.68 µM (Tox21_110001=Tox21_111021) and 1.83 µM (Tox21_110001=Tox21_200921). Take `CC[C@H]1CN2CCc3cc(OC)c(OC)cc3[C@@H]2C[C@@H]1C[C@H]1NCCc2cc(OC)c(OC)cc21` [Emetine]: the CC50 (Tox21_110001=Tox21_110901) is 0.0872 µM. Regarding `NCCNc1cccc2ccccc12` [N-(1-Naphthyl)ethylenediamine dihydrochloride], the CC50 runs as follows: (Tox21_110001=Tox21_111184) 10.9 µM; (Tox21_110001=Tox21_201928) 37 µM; (Tox21_110001=Tox21_302783) 26 µM.

Take `Clc1ccc2c(c1)C(N1CCNCC1)=Nc1ccccc1O2` [Amoxapine]: the CC50 (Tox21_110001=Tox21_302352) stood at 20.3 µM. Regarding `Oc1cccc2cccnc12` [8-Quinolinol salicylic acid (1:1)], the CC50 (Tox21_110001=Tox21_110005) amounted to 10.3 µM. Turning to `CC[n+]1ccccc1` [1-Ethylpyridinium bromide], under “Tox21_110001=Tox21_202695”, the CC50 turned out to be 32.7 µM. As for `Oc1ccc(OCc2ccccc2)cc1` [4-(Benzyloxyl)phenol], the CC50 amounted to 4.58 µM (Tox21_110001=Tox21_110396) and 10.2 µM (Tox21_110001=Tox21_201147).

With `CC[C@H](c1ccc(O)cc1)[C@@H](CC)c1ccc(O)cc1` [meso-Hexestrol], the CC50 (Tox21_110001=Tox21_110377) came to 13.9 µM and the CC50 (Tox21_110001=Tox21_301456) was found to be 47 µM. `O=S1(=O)OC(c2ccc(O)cc2)(c2ccc(O)cc2)c2ccccc21` [Phenol red]: the CC50 (Tox21_110001=Tox21_303570) turned out to be 79.8 µM. As for `CN(C)c1ccc(C(=C2C=CC(=[N+](C)C)C=C2)c2ccccc2)cc1` [Malachite green oxalate], the CC50 is, setting by setting: (Tox21_110001=Tox21_110008) 5.84 µM; (Tox21_110001=Tox21_202521) 0.0943 µM. With `COc1cc([C@@H]2c3cc4c(cc3[C@H](O)[C@H]3COC(=O)[C@H]23)OCO4)cc(OC)c1OC` [Podofilox], where the note is “Tox21_110001=Tox21_202922”, the CC50 came to 0.0227 µM.

As for `CCCC[n+]1ccc(C)cc1` [1-Butyl-4-methylpyridinium chloride], where the note is “Tox21_110001=Tox21_202685”, the CC50 came to 39.2 µM. As to `CC(C)(C)NC(=O)[C@@H]1CN(Cc2cccnc2)CCN1C[C@@H](O)C[C@@H](Cc1ccccc1)C(=O)N[C@H]1c2ccccc2C[C@H]1O` [Indinavir sulfate], the CC50 (Tox21_110001=Tox21_111687) is 32 µM.
